Tests used:
EP4 receptors = target: T1, EP4 receptors (Homo sapiens, UniProt P35408); experiment: Radioligand binding, EP4 receptor; conditions: [3H]PGE2 competition
T1 construct: expressed in transfected cells; host or cells: HEK-293 cells (membrane fraction)
Protocol: HEK-293 cells stably expressing the human or feline FP receptor, or EP1, EP2, or EP4 receptors were washed with TME buffer, scraped from the bottom of the flasks, and homogenized for 30 sec using a Brinkman PT 10/35 polytron. TME buffer was added to achieve a final 40 ml volume in the centrifuge tubes (the composition of TME is 100 mM TRIS base, 20 mM MgCl2, […]; 10N HCl is added to achieve a pH of 7.4).
The cell homogenate was centrifuged at 19000 r.p.m. for 20 min at 4° C. using a Beckman Ti-60 rotor. The resultant pellet was resuspended in TME buffer to give a final 1 mg/ml protein concentration, as determined by Biorad assay. Radioligand binding competition assays vs. [^3H-]17-phenyl PGF2[…] (5 nM) were performed in a 100 μl volume for 60 min. Binding reactions were started by adding plasma membrane fraction. The reaction was terminated by the addition of 4 ml ice-cold TRIS-HCl buffer and rapid filtration through glass fiber GF/B filters using a Brandel cell harvester. The filters were washed 3 times with ice-cold buffer and oven dried for one hour.
[^3H-] PGE2 (specific activity 180 Ci mmol) was used as the radioligand for EP receptors. [^3H] 17-phenyl PGF2α was employed for FP receptor binding studies. […] 17-phenyl PGF2α and non-specific binding determined with 10^−5M of unlabeled PGE2, or 17-phenyl PGF2α, according to receptor subtype studied.

EP2 [1] = target: T2, EP2 (Homo sapiens, UniProt P43116); experiment: Competition binding, [3H]PGE2, HEK 293 cells expressing human EP2 receptors; design: expressed in transfected cells; host or cells: HEK 293 cells (membranes or whole cells); conditions: [3H]PGE2 competition
Protocol: Competition binding experiments were performed in a medium containing Hank's balanced salt solution, Hepes 20 mM, pH 7.3, membranes (˜60 μg protein) or 2×10^5 cells from HEK 293 cells stably expressing human EP2 receptors, [^3H]PGE2 (10 nM) and various concentrations of test compounds in a total volume of 300 μl. Reaction mixtures were incubated at 23° C. for 60 min, and were filtered over Whatman GF/B filters under vacuum. Filters were washed three times with 5 ml ice-cold buffer containing 50 mM Tris/HCl (pH 7.3). Non-specific binding was estimated in the presence of excess unlabeled PGE2 (10 μM). Binding data fitted to the binding model for a single class of binding sites, using nonlinear regression analysis. IC50 values thus obtained were converted to Ki using the equation of Ki=(IC50/(1+[L]/KD) where [L] represents PGE2 concentration (10 nM) and KD the dissociation constant for [^3H]PGE2 at human EP2 receptors (40 nM). […]
The cell homogenate was centrifuged at 19000 r.p.m. for 20 min at 4° C. using a Beckman Ti-60 rotor. The resultant pellet was resuspended in TME buffer to give a final 1 mg/ml protein concentration, as determined by Biorad assay. […]
[^3H-] […] 17-phenyl PGF2α and non-specific binding determined with 10^−5M of unlabeled PGE2, or 17-phenyl PGF2α, according to receptor subtype studied.

EP2 [2] = target: T2, EP2; experiment: cAMP assay, HEK-EBNA cells expressing EP2; type: cell-based; design: expressed in transfected cells; host or cells: HEK-EBNA cells
Protocol: A 384-well drug plate was prepared to contain 6 test compounds, PGE2 and cAMP in 16 serial dilutions in triplicate, using a Biomek station. HEK-EBNA cells expressing a target PG receptor subtype (EP2 or EP4) were suspended in a stimulation buffer (HBSS, 0.1% BSA, 0.5 mM IBMX and 5 mM HEPES, pH 7.4) in a density of 10^4 cells/5 μl. The reaction was initiated by mixing 5 μL drug dilutions with 5 μl of HEK-EBNA cells in a well, carried out for 30 min at room temperature, and followed by the addition of 5 μl anti-cAMP acceptor beads in the control buffer with Tween-20 (25 mM NaCl, 0.03% Tween-20, 5 mM HEPES, pH7.4). After 30 min in the dark at room temperature, the mixtures were incubated with 15 μl biotinylated-cAMP/strepavidin donor beads in Lysis/Detection buffer (0.1% BSA, 0.3% Tween-20 and 5 mM HEPES, pH7.4) for 45 min at the room temperature. Fluorescence changes were read using a Fusion-alpha HT microplate reader.

T2 sequence (P43116 whole entry): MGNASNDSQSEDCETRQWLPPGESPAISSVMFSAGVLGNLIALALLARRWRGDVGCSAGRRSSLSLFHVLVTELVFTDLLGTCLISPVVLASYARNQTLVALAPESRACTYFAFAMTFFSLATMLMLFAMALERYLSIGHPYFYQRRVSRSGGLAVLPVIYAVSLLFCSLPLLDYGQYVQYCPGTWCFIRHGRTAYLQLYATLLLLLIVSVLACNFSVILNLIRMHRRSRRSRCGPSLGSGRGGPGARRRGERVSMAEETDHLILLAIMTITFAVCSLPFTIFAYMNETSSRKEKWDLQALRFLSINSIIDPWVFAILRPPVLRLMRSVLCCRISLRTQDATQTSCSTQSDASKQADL
T1 sequence (P35408 whole entry): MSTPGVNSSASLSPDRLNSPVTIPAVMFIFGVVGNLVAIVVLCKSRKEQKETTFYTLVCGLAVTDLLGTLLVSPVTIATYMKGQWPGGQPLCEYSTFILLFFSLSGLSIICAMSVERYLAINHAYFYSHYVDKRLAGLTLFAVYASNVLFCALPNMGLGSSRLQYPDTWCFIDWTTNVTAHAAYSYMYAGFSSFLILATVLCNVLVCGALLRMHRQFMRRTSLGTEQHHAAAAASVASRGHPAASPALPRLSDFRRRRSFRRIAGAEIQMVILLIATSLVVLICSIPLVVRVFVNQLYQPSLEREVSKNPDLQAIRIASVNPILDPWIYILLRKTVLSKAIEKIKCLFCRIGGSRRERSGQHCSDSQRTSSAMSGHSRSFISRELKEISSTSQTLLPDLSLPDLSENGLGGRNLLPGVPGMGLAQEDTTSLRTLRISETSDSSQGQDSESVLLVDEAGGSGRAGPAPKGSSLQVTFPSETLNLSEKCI

| Ki (EP4 receptors) [nM] | Ki (EP2 [1]) [nM] | EC50 (EP2 [2]) [nM] | SMILES |
| --- | --- | --- | --- |
| > 10000 | 300 | 457 | O=C(O)c1ccc(CCC[C@H]2CCC(=O)[C@@H]2COc2cc(Cl)cc(CO)c2)s1 [5-{3-[(1S,2S)-2-(3-Chloro-5-hydroxymethyl-phenoxymethyl)-3-oxo-cyclopentyl]-propyl}thiophene-2-carboxylic acid] |
| – | 201 | 8.7 | O=C(O)c1ccc(CCC[C@H]2C=CC(=O)[C@@H]2COc2cc(Cl)cc(CO)c2)s1 [5-{3-[(1S,5S)-5-(3-Chloro-5-hydroxymethyl-phenoxymethyl)-4-oxo-cyclopent-2-enyl]-propyl}-thiophene-2-carboxylic acid] |
